Results reported in patent US9469650B2, “Melampomagnolide B derivatives” (BOARD OF TRUSTEES OF THE UNIVERSITY OF ARKANSAS, priority 2013, dated 2016).

Experiments:
KM12 = test: panel of 60 human tumor cell lines, growth inhibition (Colon Cancer); details: for GI50 / CC50: Homo sapiens; for GI50 / Percent Growth / TGI: KM12; for CC50: KM12, read-out: LC50; for TGI: NCI five dose
BT-549 = test: panel of 60 human tumor cell lines, growth inhibition (Breast Cancer); details: Homo sapiens; for GI50: BT-549; for CC50: BT-549, read-out: LC50; for IC (TGI): BT-549, read-out: TGI
SF-539 = test: panel of 60 human tumor cell lines, growth inhibition (CNS Cancer); details: Homo sapiens; for GI50: SF-539; for CC50: SF-539, read-out: LC50; for IC (TGI): SF-539, read-out: TGI
UO-31 = test: panel of 60 human tumor cell lines, growth inhibition (Renal Cancer); details: Homo sapiens; for GI50: UO-31; for CC50: UO-31, read-out: LC50; for IC (TGI): UO-31, read-out: TGI
NCI/ADR-RES = test: panel of 60 human tumor cell lines, growth inhibition (Ovarian Cancer); details: Homo sapiens; for CC50: read-out: LC50; for IC (TGI): read-out: TGI
HCT-116 = test: panel of 60 human tumor cell lines, growth inhibition (Colon Cancer); details: Homo sapiens; for GI50: HCT-116, HCT-116; for CC50: HCT-116, read-out: LC50; for IC (TGI): HCT-116, read-out: TGI
MDA-MB-435 = test: panel of 60 human tumor cell lines, growth inhibition (Melanoma); details: Homo sapiens; for GI50: MDA-MB-435; for CC50: MDA-MB-435, read-out: LC50; for IC (TGI): MDA-MB-435, read-out: TGI
HCC-2998 = test: panel of 60 human tumor cell lines, growth inhibition (Colon Cancer); details: Homo sapiens; for GI50: HCC 2998; for CC50: HCC 2998, read-out: LC50; for IC (TGI): HCC 2998, read-out: TGI
SNB-19 = test: panel of 60 human tumor cell lines, growth inhibition (CNS Cancer); details: Homo sapiens; for GI50: SNB-19; for CC50: SNB-19, read-out: LC50; for IC (TGI): SNB-19, read-out: TGI
NCI-H322M = test: panel of 60 human tumor cell lines, growth inhibition (Non-Small Cell Lung Cancer); details: Homo sapiens; for CC50: read-out: LC50; for IC (TGI): read-out: TGI
SR = test: panel of 60 human tumor cell lines, growth inhibition (Leukemia); details: Homo sapiens; for CC50: read-out: LC50; for IC (TGI): read-out: TGI
SF-295 = test: panel of 60 human tumor cell lines, growth inhibition (CNS Cancer); details: Homo sapiens; for GI50: SF-295; for CC50: SF-295, read-out: LC50; for IC (TGI): SF-295, read-out: TGI
SNB-75 = test: as above; details: Homo sapiens; for GI50: SNB-75; for CC50: SNB-75, read-out: LC50; for IC (TGI): SNB-75, read-out: TGI
COLO 205 = test: panel of 60 human tumor cell lines, growth inhibition (Colon Cancer); details: Homo sapiens; for GI50: COLO 205; for CC50: COLO 205, read-out: LC50; for IC (TGI): COLO 205, read-out: TGI
ACHN = test: panel of 60 human tumor cell lines, growth inhibition (Renal Cancer); details: Homo sapiens; for CC50: read-out: LC50; for IC (TGI): read-out: TGI
SK-MEL-28 = test: panel of 60 human tumor cell lines, growth inhibition (Melanoma); details: Homo sapiens; for GI50: SK-MEL-28; for CC50: SK-MEL-28, read-out: LC50; for IC (TGI): SK-MEL-28, read-out: TGI
SN12C = test: panel of 60 human tumor cell lines, growth inhibition (Renal Cancer); details: Homo sapiens; for CC50: read-out: LC50; for IC (TGI): read-out: TGI
RXF 393 = test: as above; details: Homo sapiens; for CC50: RXF 393, read-out: LC50; for IC (TGI): RXF 393, read-out: TGI
UACC-62 = test: panel of 60 human tumor cell lines, growth inhibition (Melanoma); details: Homo sapiens; for GI50: UACC-62; for CC50: UACC-62, read-out: LC50; for IC (TGI): UACC-62, read-out: TGI
[1] = RXF 393, RXF 393, NCI five dose

For C=C1C(=O)O[C@H]2[C@H]1CC/C(COC(=O)Nc1n[nH]c(SC)n1)=C\CC[C@@]1(C)O[C@@H]21 [JVM 64, ((1aR,7aS,10aS,10bS,E)-1a-methyl-8-methylene-9-oxo-1a,2,3,6,7,7a,8,9,10a,10b-decahydrooxireno[2′,3′:9,10]cyclodeca[1,2-b]furan-5-yl)methyl-(5-(methylthio)-1H-1,2,4-triazol-3-yl)carbamate], the GI50 (KM12) was 4.01 µM, the CC50 (KM12) was 41.5 µM and the “Percent Growth” value (KM12; Log10 Concentration −4.0) was −91%. For the same compound, the “Percent Growth” value (KM12; Log10 Concentration −5.0) was 17%, the “Percent Growth” value (KM12; Log10 Concentration −6.0) was 101% and the “Percent Growth” value (KM12; Log10 Concentration −7.0) was 108%. The “Percent Growth” value (KM12; Log10 Concentration −8.0) was 104%, the TGI (KM12) was 1.43E−5 and the GI50 (BT-549) was 1.47 µM. For the same compound, the CC50 (BT-549) was 6.24 µM, the IC (TGI) (BT-549) was 3.83 µM and the GI50 (SF-539) was 1.76 µM. It also gave a CC50 (SF-539) of 9.46 µM, an IC (TGI) (SF-539) of 4.08 µM and a GI50 (UO-31) of 1.98 µM. For the same compound, the CC50 (UO-31) was 34 µM, the IC (TGI) (UO-31) was 7.86 µM and the GI50 (NCI/ADR-RES) was 24.7 µM. For the same compound, the CC50 (NCI/ADR-RES) was > 100 µM, the IC (TGI) (NCI/ADR-RES) was > 100 µM and the GI50 (HCT-116; 5-dose assay) was 1.13 µM. For the same compound, the GI50 (HCT-116; NCI five dose) was 1.13 µM, the CC50 (HCT-116) was 5.86 µM and the IC (TGI) (HCT-116) was 2.6 µM. For the same compound, the GI50 (MDA-MB-435) was 2.24 µM, the CC50 (MDA-MB-435) was 74.8 µM and the IC (TGI) (MDA-MB-435) was 7.13 µM. For the same compound, the GI50 (HCC-2998) was 7.63 µM, the CC50 (HCC-2998) was 52.7 µM and the IC (TGI) (HCC-2998) was 21.5 µM. The GI50 (SNB-19) was 15.9 µM, the CC50 (SNB-19) was > 100 µM and the IC (TGI) (SNB-19) was 40 µM. For the same compound, the GI50 (NCI-H322M) was 14.2 µM, the CC50 (NCI-H322M) was 60.3 µM and the IC (TGI) (NCI-H322M) was 29.2 µM. For the same compound, the GI50 (SR) was 2.36 µM, the CC50 (SR) was > 100 µM and the IC (TGI) (SR) was 7.13 µM. It also gave a GI50 (SF-295) of 14.1 µM, a CC50 (SF-295) of 64.1 µM and an IC (TGI) (SF-295) of 30.1 µM. The GI50 (SNB-75) was 1.71 µM, the CC50 (SNB-75) was 33.4 µM and the IC (TGI) (SNB-75) was 10.1 µM. The GI50 (COLO 205) was 1.79 µM, the CC50 (COLO 205) was 7.35 µM and the IC (TGI) (COLO 205) was 3.63 µM. The GI50 (ACHN) was 1.75 µM, the CC50 (ACHN) was 17.8 µM and the IC (TGI) (ACHN) was 4.89 µM. For the same compound, the GI50 (SK-MEL-28) was 1.85 µM, the CC50 (SK-MEL-28) was 17.9 µM and the IC (TGI) (SK-MEL-28) was 4.86 µM. The GI50 (SN12C) was 2.9 µM, the CC50 (SN12C) was 44.6 µM and the IC (TGI) (SN12C) was 10.7 µM. For the same compound, the GI50 (RXF 393; RXF 393, RXF 393, 5-dose assay) was 0.9 µM, the GI50 (RXF 393; [1]) was 0.906 µM and the CC50 (RXF 393) was 6.02 µM. The IC (TGI) (RXF 393) was 2.41 µM, the GI50 (RXF 393; RXF 393, renal cancer cell line RXF 393) was 0.9 µM and the GI50 (UACC-62) was 1.6 µM. The CC50 (UACC-62) was 15 µM and the IC (TGI) (UACC-62) was 4.35 µM.
In the case of C=C1C(=O)O[C@H]2[C@H]1CC/C(COC(=S)n1ccnc1)=C\CC[C@@]1(C)O[C@@H]21 [JVM 66], the GI50 (KM12) is reported as > 100 µM, the CC50 (KM12) is reported as > 100 µM and the “Percent Growth” value (KM12; Log10 Concentration −4.0) is reported as 60%. For the same compound, the “Percent Growth” value (KM12; Log10 Concentration −5.0) was 99%, the “Percent Growth” value (KM12; Log10 Concentration −6.0) was 99% and the “Percent Growth” value (KM12; Log10 Concentration −7.0) was 102%. The “Percent Growth” value (KM12; Log10 Concentration −8.0) was 100%, the TGI (KM12) was >1.00E−4 and the GI50 (BT-549) was 18.3 µM. For the same compound, the CC50 (BT-549) was > 100 µM, the IC (TGI) (BT-549) was 68 µM and the GI50 (SF-539) was 16.7 µM. For the same compound, the CC50 (SF-539) was 69.1 µM, the IC (TGI) (SF-539) was 34 µM and the GI50 (UO-31) was 8.37 µM. The CC50 (UO-31) was 58.1 µM, the IC (TGI) (UO-31) was 23.4 µM and the GI50 (NCI/ADR-RES) was 30.1 µM. For the same compound, the CC50 (NCI/ADR-RES) was > 100 µM, the IC (TGI) (NCI/ADR-RES) was > 100 µM and the GI50 (HCT-116; NCI five dose) was 2.47 µM. For the same compound, the CC50 (HCT-116) was 33 µM, the IC (TGI) (HCT-116) was 7.03 µM and the GI50 (MDA-MB-435) was 16.7 µM. For the same compound, the CC50 (MDA-MB-435) was > 100 µM, the IC (TGI) (MDA-MB-435) was 43.8 µM and the GI50 (HCC-2998) was 16.8 µM. For the same compound, the CC50 (HCC-2998) was 63.2 µM, the IC (TGI) (HCC-2998) was 12.6 µM and the GI50 (SNB-19) was 54.3 µM. For the same compound, the CC50 (SNB-19) was > 100 µM, the IC (TGI) (SNB-19) was > 100 µM and the GI50 (NCI-H322M) was 69.5 µM. The CC50 (NCI-H322M) was > 100 µM, the IC (TGI) (NCI-H322M) was 106 µM and the GI50 (SR) was 6.17 µM. For the same compound, the CC50 (SR) was > 100 µM, the IC (TGI) (SR) was 38.5 µM and the GI50 (SF-295) was 45 µM. For the same compound, the CC50 (SF-295) was > 100 µM, the IC (TGI) (SF-295) was 106 µM and the GI50 (SNB-75) was 39.3 µM. The CC50 (SNB-75) was > 100 µM, the IC (TGI) (SNB-75) was > 106 µM and the GI50 (COLO 205) was 12.3 µM. The CC50 (COLO 205) was 61.9 µM, the IC (TGI) (COLO 205) was 27.6 µM and the GI50 (ACHN) was 6.73 µM. The CC50 (ACHN) was 50.7 µM, the IC (TGI) (ACHN) was 20.4 µM and the GI50 (SK-MEL-28) was 15.7 µM. For the same compound, the CC50 (SK-MEL-28) was 99.3 µM, the IC (TGI) (SK-MEL-28) was 39.5 µM and the GI50 (SN12C) was 13.7 µM. The CC50 (SN12C) was 85.3 µM, the IC (TGI) (SN12C) was 18.8 µM and the GI50 (RXF 393; [1]) was 3.08 µM. It also gave a CC50 (RXF 393) of 57.4 µM, an IC (TGI) (RXF 393) of 11.4 µM and a GI50 (UACC-62) of 13.9 µM. For the same compound, the CC50 (UACC-62) was 74.8 µM and the IC (TGI) (UACC-62) was 32.3 µM.
